Source: patent publication US6217863A, “Rationally designed polysaccharide lyases derived from heparinase I” (Massachusetts Institute of Technology, priority 1999, dated 2001)
Like-named read-outs stand apart in the source and are kept apart here.

Target: T1, heparinase I (heparin lyase I) of Flavobacterium heparinum, native purified (chromatofocused) enzyme, SEQ ID NO: 2 (Pedobacter heparinus, UniProt Q05819)
T1 construct: mature heparinase I from F. heparinum contains two free cysteines and not a disulfide bridge; made in house; host or cells: Flavobacterium heparinum (native enzyme purified from cell extract: hydroxyapatite, QAE-Sephadex, chromatofocusing)
Assay: Inactivation of heparinase I activity by sulfhydryl-specific reagents
Assay type: biochemical
Conditions: for inactivation rate constant / inactivation time constant τ: PCMB; for inactivation time constant τ: pseudo first order fit; for time to complete inactivation: PBS; for inactivation rate: 500 mM iodoacetic acid
Procedure: Purification of heparinase I: Lyophilized powdered extracts of F. heparinum were prepared according to the method of Yang et al. (1985). Partially purified heparinase I was prepare by step gradient elution of powdered cell extracts from a hydroxyapatite column followed by reverse adsorption on a QAE-Sephadex column Further purification of the enzyme was accomplished with a chromatofocusing, 1 cm×18 cm column with PBE resin (Pharmacia). A 1.5-2.5 ml aliquot of protein (0.5-1.5 mg) in 0.01 M phosphate (pH 6.8) was applied to the column equilibrated with 0.025 M ethanolamine (pH 9.4 with acetic acid). Elution was carried out with 150 ml of 10% Polybuffer 96 (pH 6.0 with acetic acid). […] Fractions (1.5-2.0 ml) were collected in tubes containing 0.2 ml of 0.5 M phosphate buffer at pH 6.8. Immediately after collection, the fractions were assayed for heparinase I activity. […] The active fractions were pooled, and NaCl was added from a 2.0 M aqueous solution to give a final concentration of 0.1 M. Heparinase I was concentrated and equilibrated with a buffer consisting of 0.01 M NaH2 PO4 and 0.1 M NaCl at pH 6.8 (PBS) with Centricon P-30 microconcentrators (Amicon, Mass.).
Modification with Organomercurials: The reversible, sulfhydryl specific anion, PCMB, was utilized to determine the effects of sulfhydryl modification on heparinase I activity. […] The time course of inactivation in the presence and absence of heparin also was determined.
At =Ao exp(-t/.tau.)+A.infin.
where At is the fractional activity at time t, Ao is the initial factional activity, A.infin. is the residual activity at infinite time, and .tau. is the inactivation time constant in minutes or the reciprocal rate constant. Time constants were obtained by a nonlinear least squares fit of the data to the equation.
The effect of NEM modification on heparinase I activity was examined in an attempt to elucidate structural influences on the cysteine reactivities.
In order to ascertain whether significant levels of NEM bind heparinase I, labeling studies with [^3 H]NEM were undertaken.

T1 sequence (Q05819 22-384): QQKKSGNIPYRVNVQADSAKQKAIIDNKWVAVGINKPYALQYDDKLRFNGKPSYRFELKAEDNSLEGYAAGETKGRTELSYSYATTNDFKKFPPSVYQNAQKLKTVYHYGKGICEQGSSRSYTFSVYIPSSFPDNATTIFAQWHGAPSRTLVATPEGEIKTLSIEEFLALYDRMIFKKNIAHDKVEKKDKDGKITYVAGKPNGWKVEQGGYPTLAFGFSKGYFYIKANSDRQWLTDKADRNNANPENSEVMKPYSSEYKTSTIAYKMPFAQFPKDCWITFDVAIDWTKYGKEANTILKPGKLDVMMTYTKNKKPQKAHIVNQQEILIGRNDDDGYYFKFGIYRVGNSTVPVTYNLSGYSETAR

## O=C(O)c1cc[c]([Hg][Cl])cc1 [PCMB]
PCMB at 2.5-100 μM, 4° C.
  reversible loss of enzyme activity: 95±5%
0.0 mg/ml heparin
  inactivation rate constant: 1.2 min⁻¹
0.5 mg/ml heparin
  inactivation rate constant: 0.2 min⁻¹
Absence of heparin
  inactivation time constant τ: 0.8 ± 1 min
Presence of 0.5 mg/ml heparin
  inactivation time constant τ: 5 ± 1 min

## CCN1C(=O)C=CC1=O [NEM, N-ethylmaleimide]
1 mM NEM overnight at 4° C., read-out: activity loss
  inhibition at 1000 µM: ~15%
1 mM NEM, pH 7.0, over an 8 h period
  change in activity: little change in activity
1 mM [3H]NEM, non-denatured enzyme, 20 h, read-out: loss of activity
  inhibition at 1000 µM: 15%
0.75 h, 10 mM NEM, pH 7.0, 4° C., within 45 min, read-out: enzymatic activity lost
  inhibition at 10000 µM: 15%

## NC(=O)CI [iodoacetamide]
120 mM iodoacetamide, 24 h incubation, PBS pH 7.0, 4° C.
  inhibition at 120000 µM: 15%
2, 5, 10 and 120 mM iodoacetamide in PBS, pH 7.0, 4° C., up to 24 h
  change in activity: little change in activity

## O=C(O)CI [iodoacetic acid]
0.1 mM iodoacetic acid, 4° C.
  time to complete inactivation: ≤ 15 h
1 mM iodoacetic acid, 4° C.
  time to complete inactivation: ≤ 0.25 h
No heparin
  inactivation rate: 3±1×10^-3 h^-1
Presence of 2 mg/ml heparin
  inactivation rate: 5±2×10^-4 h^-1
10 min, 2 mM iodoacetic acid in PBS, 4° C., within 10 min, read-out: heparinase I inactivated
  inhibition at 2000 µM: 95 ± 5%
Iodoacetic acid treated enzyme (heparin protection experiment)
  retention of activity relative to untreated heparinase I: 15±5%
